# Experimental data published in US9688671B2, “Metalloenzyme inhibitor compounds” (Viamet Pharmaceuticals, Inc., priority 2013, dated 2017).
# Columns and labels:
# A. fumigatus = A. fumigatus MIC (CLSI M38-A2); settings: Aspergillus fumigatus, read-out: Aspergillus MIC (Aspergillus fumigatus MIC50)
# C. albicans = experiment: Minimum Inhibitory Concentration (MIC), C. albicans growth inhibition (CLSI M27-A2); assay type: cell-based; settings: Candida albicans; about 50% growth reduction; approximately 48 h at 35±1° C.; RPMI+MOPS
# Procedure: Compounds were assessed for their ability to inhibit the growth of common strains of fungus, C. albicans using a standardized procedure (CLSI M27-A2). Stock solutions of the test compounds and standards were prepared in DMSO at 1600 μg/mL (C. albicans). Eleven, serial, one-half dilutions of compounds were prepared in 96-well plates in RPMI+MOPS. The assay concentration ranges were 1-0.001 μg/mL (C. albicans). Cell suspensions of C. albicans were prepared and added to each well at concentrations of approximately 3.7×10^3 colony-forming-units per milliliter (cfu/mL). All testing was in duplicate. The inoculated plates were incubated for approximately 48 h at 35±1° C. At the completion of incubation the wells of each plate were evaluated visually for the presence of fungal growth. […] For voriconazole the MIC was the concentration which reduced C. albicans growth by 50% (per CLSI, M27-A2). For QC purposes C. krusei isolate ATCC 6258 (4.0×10^3 cfu/mL) was included in the VOR assay.
# Coccidioides posadasii = experiment: microbe, parasite or virus in culture; assay type: cell-based; settings: 48 h
smiles,measurement,setting,value
OC(Cn1cnnn1)(c1ccc(F)cc1F)C(F)(F)c1ccc(C#Cc2ccc(OCc3ccc(Cn4cccn4)cc3)cc2)cn1 (racemic) [Example 13],MIC50,A. fumigatus,0.25 µg/mL
same,MIC50,C. albicans,0.016 µg/mL
"OC(Cn1cnnn1)(c1ccc(F)cc1F)C(F)(F)c1ccc(C#Cc2ccc(CNc3ccc(F)cc3)cc2)cn1 (racemic) [Example 8, 2-(2,4-difluorophenyl)-1,1-difluoro-1-(5-((4-((4-fluorophenylamino)methyl)phenyl)ethynyl)pyridin-2-yl)-3-(1H-tetrazol-1-yl)propan-2-ol]",MIC50,A. fumigatus,0.5 µg/mL
same,MIC50,C. albicans,0.004 µg/mL
"OC(Cn1cnnn1)(c1ccc(F)cc1F)C(F)(F)c1ccc(C#Cc2ccc(OCc3ccc(C(F)(F)F)s3)cc2)cn1 (racemic) [Example 5, 2-(2,4-difluorophenyl)-1,1-difluoro-3-(1H-tetrazol-1-yl)-1-(5-((4-((5-(trifluoromethyl)thiophen-2-yl)methoxy)phenyl)ethynyl)pyridin-2-yl)propan-2-ol]",MIC50,Coccidioides posadasii,0.12 µg/mL
"CN(C)Cc1ccc(COc2ccc(C#Cc3ccc(C(F)(F)C(O)(Cn4cnnn4)c4ccc(F)cc4F)nc3)cc2)cc1 (racemic) [Example 11, 2-(2,4-difluorophenyl)-1-(5-((4-(4-((dimethylamino)methyl)benzyloxy)phenyl)ethynyl)pyridin-2-yl)-1,1-difluoro-3-(1H-tetrazol-1-yl)propan-2-ol]",MIC50,A. fumigatus,0.5 µg/mL
same,MIC50,C. albicans,0.016 µg/mL
"N#Cc1ccc(CC(=O)c2ccc(C#Cc3ccc(C(F)(F)C(O)(Cn4cnnn4)c4ccc(F)cc4F)nc3)cc2)cc1 (racemic) [Example 1, 4-(2-(4-((6-(2-(2,4-difluorophenyl)-1,1-difluoro-2-hydroxy-3-(1H-tetrazol-1-yl)propyl)pyridin-3-yl)ethynyl)phenyl)-2-oxoethyl)benzonitrile]",MIC50,A. fumigatus,0.5 µg/mL
same,MIC50,C. albicans,0.004 µg/mL
"N#Cc1ccc(NCc2ccc(C#Cc3ccc(C(F)(F)C(O)(Cn4cnnn4)c4ccc(F)cc4F)nc3)cc2)cc1 (racemic) [Example 2, 4-(4-((6-(2-(2,4-difluorophenyl)-1,1-difluoro-2-hydroxy-3-(1H-tetrazol-1-yl)propyl)pyridin-3-yl)ethynyl)benzylamino)benzonitrile]",MIC50,A. fumigatus,1 µg/mL
same,MIC50,C. albicans,0.016 µg/mL
"C[C@@H](c1ncncc1F)[C@](O)(Cn1cncn1)c1ccc(F)cc1F [Voriconazole, voriconazole, reference compound]",MIC50,A. fumigatus,0.25 µg/mL
same,MIC50,C. albicans,0.016 µg/mL
"OC(Cn1cnnn1)(c1ccc(F)cc1F)C(F)(F)c1ccc(C#Cc2ccc(OCc3ccc(F)s3)cc2)cn1 (racemic) [Example 6, 2-(2,4-difluorophenyl)-1,1-difluoro-1-(5-((4-((5-fluorothiophen-2-yl)methoxy)phenyl)ethynyl)pyridin-2-yl)-3-(1H-tetrazol-1-yl)propan-2-ol]",MIC50,A. fumigatus,0.5 µg/mL
same,MIC50,C. albicans,0.008 µg/mL
"OC(Cn1cnnn1)(c1ccc(F)cc1F)C(F)(F)c1ccc(C#Cc2ccc(CNc3ccc(Cl)cc3)cc2)cn1 (racemic) [Example 7, 1-(5-((4-((4-chlorophenylamino)methyl)phenyl)ethynyl)pyridin-2-yl)-2-(2,4-difluorophenyl)-1,1-difluoro-3-(1H-tetrazol-1-yl)propan-2-ol]",MIC50,Coccidioides posadasii,0.12 µg/mL
